Legend:
[1] = tested on: CCRF-CEM; assay: cells; assay type: cell-based; conditions: Homo sapiens, read-out: growth inhibition % (GI%)
[2] = tested on: K-562; assay: cells; assay type: cell-based; conditions: Homo sapiens, K562, read-out: growth inhibition % (GI%)
[3] = tested on: MOLT-4; assay: cells; assay type: cell-based; conditions: Homo sapiens, MOLT-4, read-out: growth inhibition % (GI%)
[4] = tested on: RPMI-8226; assay: cells; assay type: cell-based; conditions: Homo sapiens, RPMI-8226, read-out: growth inhibition % (GI%)
[5] = tested on: SR; assay: cells; assay type: cell-based; conditions: Homo sapiens, read-out: growth inhibition % (GI%)
[6] = tested on: A549/ATCC; assay: cells; assay type: cell-based; conditions: Homo sapiens, A549, read-out: growth inhibition % (GI%)
[7] = tested on: EKVX; assay: cells; assay type: cell-based; conditions: Homo sapiens, read-out: growth inhibition % (GI%)
[8] = tested on: HOP-92; assay: cells; assay type: cell-based; conditions: Homo sapiens, HOP-92, read-out: growth inhibition % (GI%)
[9] = tested on: NCI-H226; assay: cells; assay type: cell-based; conditions: Homo sapiens, NCI-H226, read-out: growth inhibition % (GI%)
[10] = tested on: NCI-H322M; assay: cells; assay type: cell-based; conditions: Homo sapiens, read-out: growth inhibition % (GI%)
[11] = tested on: NCI-H460; assay: cells; assay type: cell-based; conditions: Homo sapiens, NCI-H460, read-out: growth inhibition % (GI%)
[12] = tested on: NCI-H522; assay: cells; assay type: cell-based; conditions: Homo sapiens, NCI-H522, read-out: growth inhibition % (GI%)
[13] = tested on: COLO-205; assay: cells; assay type: cell-based; conditions: Homo sapiens, COLO 205, read-out: growth inhibition % (GI%)
[14] = tested on: HCC-2998; assay: cells; assay type: cell-based; conditions: Homo sapiens, HCC 2998, read-out: growth inhibition % (GI%)
[15] = tested on: HCT-116; assay: cells; assay type: cell-based; conditions: Homo sapiens, HCT-116, read-out: growth inhibition % (GI%)
[16] = tested on: HCT-15; assay: cells; assay type: cell-based; conditions: Homo sapiens, HCT-15, read-out: growth inhibition % (GI%)
[17] = tested on: HT29; assay: cells; assay type: cell-based; conditions: Homo sapiens, HT-29, read-out: growth inhibition % (GI%)
[18] = tested on: KM12; assay: cells; assay type: cell-based; conditions: Homo sapiens, KM12, read-out: growth inhibition % (GI%)
[19] = tested on: SF-268; assay: cells; assay type: cell-based; conditions: Homo sapiens, SF-268, read-out: growth inhibition % (GI%)
[20] = tested on: SF-295; assay: cells; assay type: cell-based; conditions: Homo sapiens, SF-295, read-out: growth inhibition % (GI%)
[21] = tested on: SF-539; assay: cells; assay type: cell-based; conditions: Homo sapiens, SF-539, read-out: growth inhibition % (GI%)
[22] = tested on: SNB-19; assay: cells; assay type: cell-based; conditions: Homo sapiens, SNB-19, read-out: growth inhibition % (GI%)
[23] = tested on: SNB-75; assay: cells; assay type: cell-based; conditions: Homo sapiens, SNB-75, read-out: growth inhibition % (GI%)
[24] = tested on: U251; assay: cells; assay type: cell-based; conditions: Homo sapiens, U-251, read-out: growth inhibition % (GI%)
[25] = tested on: LOX IMIV; assay: cells; assay type: cell-based; conditions: Homo sapiens, 60 cell, read-out: growth inhibition % (GI%)
[26] = tested on: MALME-3M; assay: cells; assay type: cell-based; conditions: Homo sapiens, Malme-3M, read-out: growth inhibition % (GI%)
[27] = tested on: MDA-MB-435; assay: cells; assay type: cell-based; conditions: Homo sapiens, MDA-MB-435, read-out: growth inhibition % (GI%)
[28] = tested on: SK-MEL-2; assay: cells; assay type: cell-based; conditions: Homo sapiens, SK-MEL-2, read-out: growth inhibition % (GI%)
[29] = tested on: SK-MEL-5; assay: cells; assay type: cell-based; conditions: Homo sapiens, SK-MEL-5, read-out: growth inhibition % (GI%)
[30] = tested on: UACC-257; assay: cells; assay type: cell-based; conditions: Homo sapiens, UACC-257, read-out: growth inhibition % (GI%)
[31] = tested on: UACC-62; assay: cells; assay type: cell-based; conditions: Homo sapiens, UACC-62, read-out: growth inhibition % (GI%)
[32] = tested on: IGROV1; assay: cells; assay type: cell-based; conditions: Homo sapiens, IGROV-1, read-out: growth inhibition % (GI%)
[33] = tested on: OVCAR-4; assay: cells; assay type: cell-based; conditions: Homo sapiens, OVCAR-4, read-out: growth inhibition % (GI%)
[34] = tested on: OVCAR-8; assay: cells; assay type: cell-based; conditions: Homo sapiens, OVCAR-8, read-out: growth inhibition % (GI%)
[35] = tested on: NCI/ADR-RES; assay: cells; assay type: cell-based; conditions: Homo sapiens, read-out: growth inhibition % (GI%)
[36] = tested on: SK-OV-3; assay: cells; assay type: cell-based; conditions: Homo sapiens, SK-OV-3, read-out: growth inhibition % (GI%)
[37] = tested on: A498; assay: cells; assay type: cell-based; conditions: Homo sapiens, A498, read-out: growth inhibition % (GI%)
[38] = tested on: SN12C; assay: cells; assay type: cell-based; conditions: Homo sapiens, read-out: growth inhibition % (GI%)
[39] = tested on: TK-10; assay: cells; assay type: cell-based; conditions: Homo sapiens, TK-10, read-out: growth inhibition % (GI%)
[40] = tested on: UO-31; assay: cells; assay type: cell-based; conditions: Homo sapiens, UO-31, read-out: growth inhibition % (GI%)
[41] = tested on: PC-3; assay: cells; assay type: cell-based; conditions: Homo sapiens, PC-3, read-out: growth inhibition % (GI%)
[42] = tested on: MCF7; assay: cells; assay type: cell-based; conditions: Homo sapiens, MCF7, read-out: growth inhibition % (GI%)
[43] = tested on: HS 578T; assay: cells; assay type: cell-based; conditions: Homo sapiens, Hs-578T, read-out: growth inhibition % (GI%)
[44] = tested on: BT-549; assay: cells; assay type: cell-based; conditions: Homo sapiens, BT-549, read-out: growth inhibition % (GI%)
[45] = tested on: T-47D; assay: cells; assay type: cell-based; conditions: Homo sapiens, T47D, read-out: growth inhibition % (GI%)
[46] = tested on: panel of 60 tumour cell lines; assay: NCI 60 cell line antiproliferative screening (SRB), whole panel or subpanels (means, ranges, words); assay type: cell-based, human; conditions: 10 μM; for inhibition at 10 µM: Homo sapiens, 60 cell, mean over the cell line panel, read-out: Mean growth inhibition % (mean GI%)
[47] = tested on: OVCAR-3; assay: NCI 60 cell line antiproliferative screening (SRB), Ovarian cancer; conditions: Homo sapiens, OVCAR-3, read-out: growth inhibition % (GI%)

`O=C(CSc1nc2ccccc2c(=O)n1-c1ccccc1)NN=Cc1ccc(Oc2ccc(Cl)cc2)cc1` [6a, N'-(4–(4-chlorophenoxy)benzylidene)-2-((4-oxo-3-phenyl-3,4-dihydroquinazolin-2-yl)thio)acetohydrazide] gave an inhibition at 10 µM [1] of 49.6%, an inhibition at 10 µM [2] of 38.8% and an inhibition at 10 µM [3] of 41.3%. It also gave an inhibition at 10 µM [4] of 26.8%, an inhibition at 10 µM [5] of 29.7% and an inhibition at 10 µM [6] of 58.3%. It also gave an inhibition at 10 µM [7] of 41%, an inhibition at 10 µM [8] of 33.3% and an inhibition at 10 µM [9] of 27.9%. It also gave an inhibition at 10 µM [10] of 15.5%, an inhibition at 10 µM [11] of 67.9% and an inhibition at 10 µM [12] of 50.4%. It also gave an inhibition at 10 µM [13] of 50.8%, an inhibition at 10 µM [14] of less than 15% and an inhibition at 10 µM [15] of 94.4%. The inhibition at 10 µM [16] was 39.2%, the inhibition at 10 µM [17] was 40.9% and the inhibition at 10 µM [18] was 16.3%. The inhibition at 10 µM [19] was less than 15%, the inhibition at 10 µM [20] was 16.2% and the inhibition at 10 µM [21] was 31.5%. The inhibition at 10 µM [22] was 66.8%, the inhibition at 10 µM [23] was 39.9% and the inhibition at 10 µM [24] was 84.8%. It also gave an inhibition at 10 µM [25] of 86%, an inhibition at 10 µM [26] of 48.7% and an inhibition at 10 µM [27] of 15.4%. The inhibition at 10 µM [28] was 13.1%, the inhibition at 10 µM [29] was 28.8% and the inhibition at 10 µM [30] was less than 15%. It also gave an inhibition at 10 µM [31] of 33.4%, an inhibition at 10 µM [32] of 50.9% and an inhibition at 10 µM [33] of 26.2%. The inhibition at 10 µM [34] was 40.8%, the inhibition at 10 µM [35] was 47.3% and the inhibition at 10 µM [36] was 16.8%. For the same compound, the inhibition at 10 µM [37] was 34.3%, the inhibition at 10 µM [38] was 73.1% and the inhibition at 10 µM [39] was less than 15%. For the same compound, the inhibition at 10 µM [40] was 18.8%, the inhibition at 10 µM [41] was 41.3% and the inhibition at 10 µM [42] was 35.5%. It also gave an inhibition at 10 µM [43] of 41.1%, an inhibition at 10 µM [44] of 30.1% and an inhibition at 10 µM [45] of 17.5%. For the same compound, the “GI% range over a subset of cell lines” value ([46]; subset of cell lines whose number is stated in the sentence) was 67.86% to 30.09, the inhibition at 10 µM [46] was 37.3% and the inhibition at 10 µM [47] was less than 15%.
Compound `O=C(CSc1nc2ccccc2c(=O)n1-c1ccccc1)NN=Cc1ccc(Oc2ccc(Br)cc2)cc1` [6b, N'-(4–(4-bromophenoxy)benzylidene)-2-((4-oxo-3-phenyl-3,4-dihydroquinazolin-2-yl)thio) acetohydrazide] has an inhibition at 10 µM [1] of 43.1%, an inhibition at 10 µM [2] of 37.5% and an inhibition at 10 µM [3] of 44.5%. The inhibition at 10 µM [4] was 31.7%, the inhibition at 10 µM [5] was 26.6% and the inhibition at 10 µM [6] was 57.8%. For the same compound, the inhibition at 10 µM [7] was 39.3%, the inhibition at 10 µM [8] was 27% and the inhibition at 10 µM [9] was 22.4%. It also gave an inhibition at 10 µM [10] of less than 15%, an inhibition at 10 µM [11] of 72% and an inhibition at 10 µM [12] of 51.5%. The inhibition at 10 µM [13] was 55.6%, the inhibition at 10 µM [14] was less than 15% and the inhibition at 10 µM [15] was 92.2%. The inhibition at 10 µM [16] was 36.3%, the inhibition at 10 µM [17] was 61.8% and the inhibition at 10 µM [18] was 23.7%. It also gave an inhibition at 10 µM [19] of 15.7%, an inhibition at 10 µM [20] of 16.3% and an inhibition at 10 µM [21] of 31.3%. The inhibition at 10 µM [22] was 60.1%, the inhibition at 10 µM [23] was 42.2% and the inhibition at 10 µM [24] was 78.5%. The inhibition at 10 µM [25] was 79%, the inhibition at 10 µM [26] was 45.1% and the inhibition at 10 µM [27] was 19.2%. It also gave an inhibition at 10 µM [28] of less than 15%, an inhibition at 10 µM [29] of 40.9% and an inhibition at 10 µM [30] of less than 15%. It also gave an inhibition at 10 µM [31] of 31.2%, an inhibition at 10 µM [32] of 34.5% and an inhibition at 10 µM [33] of 18.3%. For the same compound, the inhibition at 10 µM [34] was 36.7%, the inhibition at 10 µM [35] was 44.8% and the inhibition at 10 µM [36] was 15.5%. The inhibition at 10 µM [37] was 17.7%, the inhibition at 10 µM [38] was 59.3% and the inhibition at 10 µM [39] was less than 15%. The inhibition at 10 µM [40] was less than 15%, the inhibition at 10 µM [41] was 28.2% and the inhibition at 10 µM [42] was 31.1%. The inhibition at 10 µM [43] was 39.2%, the inhibition at 10 µM [44] was 26.9% and the inhibition at 10 µM [45] was 17.6%. The inhibition at 10 µM [46] was 34.8% and the inhibition at 10 µM [47] was less than 15%.
